The source of these data is patent US8580809B2, “Filamin A-binding anti-inflammatory analgesic” (Pain Therapeutics, Inc., priority 2009, dated 2013).

The target of experiment [1] is FLNA VAKGL pentapeptide (Bn-VAKGL) (Homo sapiens, UniProt P21333). Description: FITC-NLX-based FLNA screening assay (FLNA peptide binding assay).
Description: Streptavidin-coated 96-well plates (Reacti-Bind™ NeutrAvidin™ High binding capacity coated 96-well plate, Pierce-ENDOGEN) are washed three times with 200 μl of 50 mM Tris HCl, pH 7.4 according to the manufacturer's recommendation.
Bn-VAKGL peptide (0.5 mg/plate) is dissolved in 50 μl DMSO and then added to 4450 μl of 50 mM Tris HCl, pH 7.4, containing 100 mM NaCl and protease inhibitors (binding medium) as well as 500 μl superblock in PBS (Pierce-ENDOGEN) [final concentration for DMSO: 1%].
The washed streptavidin-coated plates are contacted with 5 μg/well of Bn-VAKGL (100 μl) for 1 hour (incubated) with constant shaking at 25° C. [50 μl of Bn-VAKGL peptide solution from B+50 μl binding medium, final concentration for DMSO: 0.5%]. At the end of the incubation, the plate is washed three times with 200 μl of ice-cold 50 mM Tris HCl, pH 7.4.
The final assay volume is 100 μl. At the end of incubation, the plate is washed twice with 100 μl of ice-cold 50 mM Tris, pH 7.4. The signal, bound-FITC-NLX is detected using a DTX-880 multi-mode plate reader (Beckman).
To screen the medicinal chemistry analogs (new compounds), each compound solution (1 μl) is added to the Bn-VAKGL coated streptavidin plate with 50 μl/well of binding medium followed immediately with addition of 50 μl of FITC-NLX (total assay volume/well is 100 μl). The final screening concentration for each compound is 10 μM. […]
For experiment [2], the target named is T1, mu opiate receptor (MOR) (Rattus norvegicus, UniProt P33535).
T1 construct: from tissue; host or cells: rat striatal membrane preparation
Description: MOR agonist activity using [35S]GTPγS binding assay in striatal membranes. It counts as biochemical. For orientation: GTPγS resists hydrolysis and so accumulates on activated G proteins.

The target of experiment [3] is filamin A (Homo sapiens, UniProt P21333). Conditions: read-out: affinity of binding to filamin A; cited from earlier work.
Sequence of filamin A (P21333 whole entry): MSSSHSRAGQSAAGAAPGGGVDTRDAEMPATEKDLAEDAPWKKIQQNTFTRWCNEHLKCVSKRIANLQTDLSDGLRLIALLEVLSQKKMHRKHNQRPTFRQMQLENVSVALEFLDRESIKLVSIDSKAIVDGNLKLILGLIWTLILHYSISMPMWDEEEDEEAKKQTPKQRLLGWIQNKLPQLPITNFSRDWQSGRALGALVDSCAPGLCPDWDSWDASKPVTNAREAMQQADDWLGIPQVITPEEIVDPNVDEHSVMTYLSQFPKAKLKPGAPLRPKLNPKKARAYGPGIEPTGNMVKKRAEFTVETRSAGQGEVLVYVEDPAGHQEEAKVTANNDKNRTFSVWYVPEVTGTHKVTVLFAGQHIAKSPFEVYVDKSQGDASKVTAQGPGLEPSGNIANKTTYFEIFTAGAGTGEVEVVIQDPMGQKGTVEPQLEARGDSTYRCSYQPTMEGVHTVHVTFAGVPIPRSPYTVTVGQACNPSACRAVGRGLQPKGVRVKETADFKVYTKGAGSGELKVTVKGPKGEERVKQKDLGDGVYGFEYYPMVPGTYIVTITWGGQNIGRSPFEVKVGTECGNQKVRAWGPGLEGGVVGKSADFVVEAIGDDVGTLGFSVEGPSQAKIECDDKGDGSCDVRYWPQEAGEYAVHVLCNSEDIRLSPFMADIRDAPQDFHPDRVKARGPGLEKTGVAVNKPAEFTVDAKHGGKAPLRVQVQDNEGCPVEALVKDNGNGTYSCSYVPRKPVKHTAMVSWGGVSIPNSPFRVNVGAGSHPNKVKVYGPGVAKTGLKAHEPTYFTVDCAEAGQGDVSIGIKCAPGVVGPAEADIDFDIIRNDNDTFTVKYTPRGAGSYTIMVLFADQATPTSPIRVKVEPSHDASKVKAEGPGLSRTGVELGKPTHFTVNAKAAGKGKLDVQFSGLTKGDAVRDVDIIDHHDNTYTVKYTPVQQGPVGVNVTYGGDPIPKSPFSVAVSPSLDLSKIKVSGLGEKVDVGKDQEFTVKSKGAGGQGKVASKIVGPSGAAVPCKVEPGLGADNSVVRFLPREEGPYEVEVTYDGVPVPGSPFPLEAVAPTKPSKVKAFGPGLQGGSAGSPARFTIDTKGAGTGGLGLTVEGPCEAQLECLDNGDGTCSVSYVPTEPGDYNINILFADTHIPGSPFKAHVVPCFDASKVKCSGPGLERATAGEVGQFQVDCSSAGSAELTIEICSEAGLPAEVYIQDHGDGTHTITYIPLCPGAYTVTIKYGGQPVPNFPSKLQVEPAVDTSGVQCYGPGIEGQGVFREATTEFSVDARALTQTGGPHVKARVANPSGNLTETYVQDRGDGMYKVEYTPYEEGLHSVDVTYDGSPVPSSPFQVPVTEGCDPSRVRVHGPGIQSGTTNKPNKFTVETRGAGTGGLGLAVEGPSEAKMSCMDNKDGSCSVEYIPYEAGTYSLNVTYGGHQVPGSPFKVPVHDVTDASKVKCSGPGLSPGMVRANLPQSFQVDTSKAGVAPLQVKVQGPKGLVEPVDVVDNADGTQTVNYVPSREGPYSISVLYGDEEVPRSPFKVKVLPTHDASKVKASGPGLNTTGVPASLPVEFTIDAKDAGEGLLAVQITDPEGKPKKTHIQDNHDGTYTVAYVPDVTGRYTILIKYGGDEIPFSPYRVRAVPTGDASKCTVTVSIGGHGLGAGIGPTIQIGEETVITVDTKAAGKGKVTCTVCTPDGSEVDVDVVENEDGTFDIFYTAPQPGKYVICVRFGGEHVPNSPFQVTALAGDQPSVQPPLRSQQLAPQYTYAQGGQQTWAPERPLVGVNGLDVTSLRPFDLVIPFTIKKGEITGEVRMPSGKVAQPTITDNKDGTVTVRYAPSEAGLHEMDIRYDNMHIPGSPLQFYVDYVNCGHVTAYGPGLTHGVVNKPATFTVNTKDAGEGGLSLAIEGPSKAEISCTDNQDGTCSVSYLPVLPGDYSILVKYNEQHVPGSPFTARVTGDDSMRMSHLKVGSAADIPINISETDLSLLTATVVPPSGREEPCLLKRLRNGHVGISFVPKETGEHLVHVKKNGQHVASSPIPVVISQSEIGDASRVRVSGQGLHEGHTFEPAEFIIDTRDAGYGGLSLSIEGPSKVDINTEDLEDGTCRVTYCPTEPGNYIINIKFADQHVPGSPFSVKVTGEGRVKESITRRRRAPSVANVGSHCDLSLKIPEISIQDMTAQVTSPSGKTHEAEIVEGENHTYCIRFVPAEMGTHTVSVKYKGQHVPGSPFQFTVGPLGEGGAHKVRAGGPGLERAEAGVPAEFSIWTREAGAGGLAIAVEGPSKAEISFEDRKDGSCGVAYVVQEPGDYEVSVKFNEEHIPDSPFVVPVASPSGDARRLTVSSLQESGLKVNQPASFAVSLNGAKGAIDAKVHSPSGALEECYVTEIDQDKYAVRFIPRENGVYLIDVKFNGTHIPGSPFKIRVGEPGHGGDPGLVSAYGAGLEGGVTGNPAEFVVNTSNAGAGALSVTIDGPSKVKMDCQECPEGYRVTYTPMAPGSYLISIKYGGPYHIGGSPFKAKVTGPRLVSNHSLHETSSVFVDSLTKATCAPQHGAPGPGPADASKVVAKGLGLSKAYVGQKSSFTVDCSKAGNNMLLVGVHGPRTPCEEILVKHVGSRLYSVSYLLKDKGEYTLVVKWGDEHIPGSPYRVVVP

T1 sequence (P33535 whole entry): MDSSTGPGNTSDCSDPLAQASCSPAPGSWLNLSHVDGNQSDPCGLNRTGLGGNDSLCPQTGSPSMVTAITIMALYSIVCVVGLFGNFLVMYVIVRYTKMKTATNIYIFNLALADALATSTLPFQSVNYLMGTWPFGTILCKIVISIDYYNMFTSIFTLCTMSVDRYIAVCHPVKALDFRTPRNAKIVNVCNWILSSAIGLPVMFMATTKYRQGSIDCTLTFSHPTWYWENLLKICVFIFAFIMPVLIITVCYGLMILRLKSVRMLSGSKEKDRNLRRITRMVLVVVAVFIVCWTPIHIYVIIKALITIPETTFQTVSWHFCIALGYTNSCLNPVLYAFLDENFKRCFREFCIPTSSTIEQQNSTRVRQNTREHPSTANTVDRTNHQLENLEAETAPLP

Regarding `O=C(c1ccc([N+](=O)[O-])cc1)N1CCC2(CC1)OCCN2S(=O)(=O)c1ccc([N+](=O)[O-])cc1` [Compound C0033], the inhibition – broadly, how much of the control response was suppressed – at 0.1 µM in experiment [1] (read-out: Percent inhibition of FITC-NLX binding, 0.1 μM) is 48.4%. Besides, the inhibition at 1 µM in experiment [1] (read-out: Percent inhibition of FITC-NLX binding, 1 μM) stood at 51.3%. Moreover, in experiment [2] (0.1 μM compound, striatal membranes), the “MOR agonist activity, [35S]GTPγS binding to Gαo, FLNA-binding compound as agonist 0.1 μM” value is given as 134.5%. In addition, the “MOR agonist activity, [35S]GTPγS binding to Gαo, 1 μM + BFNA” value in experiment [2] (1 μM compound + 1 μM β-funaltrexamine) was determined as 76.6%. In addition, in experiment [2] (1 μM compound, striatal membranes), the “MOR agonist activity, [35S]GTPγS binding to Gαo, FLNA-binding compound as agonist 1 μM” value was determined as 186.4%.

In the case of `O=C1CC[C@@]2(O)[C@H]3Cc4ccc(O)c5c4[C@@]2(CCN3CC2CC2)[C@H]1O5` [NTX, naltrexone], the Kd in experiment [3] is around 4 pM.
